Data published in patent publication US4337207A, “Biologically active catecholamine derivatives” (Regents of the University of California, priority 1980, dated 1982).

What was measured:
S49 mouse lymphoma cells = assay: cAMP formation in S49 lymphoma cells (β-adrenergic agonist activity); assay type: cell-based; conditions: for EC50: Mus musculus, catecholamine derivative, read-out: KA (concentration of the catecholamine for approximately half maximal stimulation of cAMP concentration); for activity in words / activity greater than that of isoproterenol: S49 cell assay; for activity greater than that of isoproterenol: relative to isoproterenol
Excerpt: The in vitro testing of cAMP formation in S49 lymphoma cells is a well documented and accepted test for indicating and anticipating β-adrenergic activity in the mammalian body.
Such testing procedures and their significance has been set forth in a number of prior publications, e.g. Shear et al., J. Biol. Chem.; 251, 7572 (1976); Coffino, et al., In Vitro, 14, No. 1, 140 et.seq. (1978); and in Johnson, et al.; Molecular Pharmacology, 15, 16-27 (1978). The tests measure increased cyclic adenosine monophosphate (cAMP) concentration in the S49 cells. In Table 1, KA indicates the concentration of the catecholamine for approximately half maximal stimulation of cAMP concentration. Emax is a measure of the maximal response (cAMP concentration) of the S49 cells to the respective catecholamines regardless of how high the concentration of the catecholamines may become. The Table compares the response of the cells to the particular catecholamine derivatives with the cells' response to isoproterenol. Thus a measure of the relative biological activity can be obtained.

C6 cells = biological target: T1, C6 cells (Rattus norvegicus, UniProt P18090); assay: KD in C6 cells; assay type: binding; conditions: relative to isoproterenol
T1 construct: endogenous in cells; host or cells: C6 cells
T1 sequence (P18090 whole entry): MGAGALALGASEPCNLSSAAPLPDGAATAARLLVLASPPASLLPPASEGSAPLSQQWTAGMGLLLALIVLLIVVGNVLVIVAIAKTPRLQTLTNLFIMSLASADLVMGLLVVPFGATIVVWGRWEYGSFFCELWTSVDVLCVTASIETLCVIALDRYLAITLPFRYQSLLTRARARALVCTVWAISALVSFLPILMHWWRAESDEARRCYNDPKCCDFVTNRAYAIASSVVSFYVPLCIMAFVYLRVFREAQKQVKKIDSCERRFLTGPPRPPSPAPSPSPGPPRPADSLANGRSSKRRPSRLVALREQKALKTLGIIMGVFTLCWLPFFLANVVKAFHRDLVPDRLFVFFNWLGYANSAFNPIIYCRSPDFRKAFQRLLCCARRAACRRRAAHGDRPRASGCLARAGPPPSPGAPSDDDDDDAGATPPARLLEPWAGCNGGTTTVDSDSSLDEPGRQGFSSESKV
Excerpt: (§1) A large dependence of activity on the length of the methylene chain i.e., (CH2)n is seen with the toluides (Compounds 10-14). Of the compounds noted, peak activity is seen in the case of n=4 (Compound 12), which has an activity approximately two orders of magnitude greater than that of isoproterenol.

rats = assay: blood pressure and heart rate changes in rats on administration of the drug; assay type: in vivo; conditions: rat, relative to isoproterenol
S49 cells = biological target: T2, S49 cells (Mus musculus, UniProt P18762); assay: KD in S49 cells; assay type: binding; conditions: relative to isoproterenol
T2 construct: endogenous in cells; host or cells: S49 lymphoma cells
T2 sequence (P18762 whole entry): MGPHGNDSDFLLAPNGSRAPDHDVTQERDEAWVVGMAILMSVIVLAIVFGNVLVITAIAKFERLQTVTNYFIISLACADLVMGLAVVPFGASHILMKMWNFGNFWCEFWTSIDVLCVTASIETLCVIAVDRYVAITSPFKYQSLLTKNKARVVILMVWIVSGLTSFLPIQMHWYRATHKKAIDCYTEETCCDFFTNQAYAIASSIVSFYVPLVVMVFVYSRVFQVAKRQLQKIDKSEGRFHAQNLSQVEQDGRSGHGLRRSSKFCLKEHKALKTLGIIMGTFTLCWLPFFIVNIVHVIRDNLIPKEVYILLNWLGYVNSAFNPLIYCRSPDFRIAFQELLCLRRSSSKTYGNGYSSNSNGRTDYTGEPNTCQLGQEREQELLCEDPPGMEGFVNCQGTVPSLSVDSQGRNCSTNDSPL
Excerpt: as §1

CC(C)NCC(O)c1ccc(O)c(O)c1 (racemic) [d,l-Isoproterenol, reference compound]
KA of d,l-isoproterenol (S49 mouse lymphoma cells; S49 lymphoma cells, comparison with the derivative on the same table line): 45 pM

CC(CCC(=O)O)NCC(O)c1ccc(O)c(O)c1 (stereo not shown) [Compound 6]
EC50 (S49 mouse lymphoma cells; S49 lymphoma cells): 1600 nM

CC(CCCC(=O)O)NCC(O)c1ccc(O)c(O)c1 (stereo not shown) [Compound 7]
EC50 (S49 mouse lymphoma cells; S49 lymphoma cells): 370 nM

CC(CCCCC(=O)O)NCC(O)c1ccc(O)c(O)c1 (stereo not drawn) [Compound 8, 6-(β-3,4-Dihydroxyphenyl-β-hydroxy)-ethylamino heptanoic acid]
EC50 (S49 mouse lymphoma cells; S49 lymphoma cells): 350 nM

CC(CCCCCC(=O)O)NCC(O)c1ccc(O)c(O)c1 (stereo not shown) [Compound 9]
EC50 (S49 mouse lymphoma cells; S49 lymphoma cells): 350 nM

Cc1ccc(NC(=O)CCC(C)NCC(O)c2ccc(O)c(O)c2)cc1 (stereo not shown) [Compound 10]
EC50 (S49 mouse lymphoma cells; S49 lymphoma cells): 3.5 nM

Cc1ccc(NC(=O)CCCC(C)NCC(O)c2ccc(O)c(O)c2)cc1 (stereo not shown) [Compound 11]
EC50 (S49 mouse lymphoma cells; S49 lymphoma cells): 8 nM

Cc1ccc(NC(=O)CCCCC(C)NCC(O)c2ccc(O)c(O)c2)cc1 (stereo not drawn) [Compound 12, 6-(β-3,4-dihydroxyphenyl-β-hydroxy)-ethylamino Heptanoic Acid p-Toluide]
KD lower than for isoproterenol (C6 cells): 2 orders of magnitude
times more active than isoproterenol (rats): 50-70 times
KD lower than for isoproterenol (S49 cells): 2 orders of magnitude
EC50 (S49 mouse lymphoma cells; S49 lymphoma cells): 0.056 nM
activity in words (S49 mouse lymphoma cells): peak activity

Cc1ccc(NC(=O)CCCCCC(C)NCC(O)c2ccc(O)c(O)c2)cc1 (stereo not shown) [Compound 14]
EC50 (S49 mouse lymphoma cells; S49 lymphoma cells): 22 nM

CCCCc1ccc(NC(=O)CCCCC(C)NCC(O)c2ccc(O)c(O)c2)cc1 (stereo not shown) [Compound 15]
activity greater than that of isoproterenol (S49 mouse lymphoma cells): at least 3 orders of magnitude

COc1ccc(NC(=O)CCCCC(C)NCC(O)c2ccc(O)c(O)c2)cc1 (stereo not shown) [Compound 16]
EC50 (S49 mouse lymphoma cells; S49 lymphoma cells): 13 nM
activity in words (S49 mouse lymphoma cells): approximately the same activity as isoproterenol

CC(CCCCC(=O)Nc1ccc(C(F)(F)F)cc1)NCC(O)c1ccc(O)c(O)c1 (stereo not shown) [Compound 17]
activity greater than that of isoproterenol (S49 mouse lymphoma cells): at least 3 orders of magnitude

CCCCNC(=O)CCCCC(C)NCC(O)c1ccc(O)c(O)c1 (stereo not shown) [Compound 19]
EC50 (S49 mouse lymphoma cells; S49 lymphoma cells): 0.18 nM

CC(CCCCC(=O)NC1CCCCC1)NCC(O)c1ccc(O)c(O)c1 (stereo not shown) [Compound 20]
EC50 (S49 mouse lymphoma cells; S49 lymphoma cells): 0.26 nM
